Values belong to the compound of their own block, whether it stands above or below them.
Columns and labels:
in vitro [1] = settings: mouse, liver microsomes
in vitro [2] = settings: human, liver microsomes
physchem [3] = assay: physchem
physchem [4] = settings: octanol/water
physchem [5] = settings: octanol/water, pH 7.4
[6] = test system: Human immunodeficiency virus 1; assay: microbe, parasite or virus in culture
cells = settings: Homo sapiens, Platelet, Plasma
physchem [7] = assay: physchem; remark: listed apart in the source
Platelet [8] = assay: cells; settings: Homo sapiens, Plasma
Platelet [9] = assay: cells; settings: Homo sapiens, Plasma; remark: listed apart in the source
Rattus norvegicus = species on record: Rattus norvegicus; assay: animal or person; settings: read-out: INH
in vitro [10] = settings: human, Caco-2
in vivo [11] = settings: rat, po
in vitro [12] = settings: human, liver microsomes; remark: listed apart in the source
in vitro [13] = settings: rat, liver microsomes
in vitro [14] = settings: human, Caco-2; remark: listed apart in the source
physchem [15] = settings: octanol/water, pH 7.4; remark: listed apart in the source
[16] = test system: Respiratory syncytial virus; assay: microbe, parasite or virus in culture; settings: human respiratory syncytial virus
Syrian golden hamster = assay: animal or person; settings: Mesocricetus auratus
in vivo [17] = settings: rat
clinical = settings: human, in vivo

microsomal CLint (in vitro [1]): 27 µL/min/mg
microsomal CLint (in vitro [2]): 2 µL/min/mg
solubility (physchem [3]): 4000 µg/mL
Structure (SMILES): CN(C)CCCCc1ccc(C2COC2)cc1

microsomal CLint (in vitro [1]): 417 µL/min/mg
microsomal CLint (in vitro [2]): 16 µL/min/mg
solubility (physchem [3]): < 1 µg/mL
logP (physchem [4]): 4.3
logD (physchem [5]): 1.8
Structure (SMILES): CN(C)CCCCc1ccc(C(C)(C)C)cc1

microsomal CLint (in vitro [1]): 43 µL/min/mg
solubility (physchem [3]): 4400 µg/mL
Structure (SMILES): CN(C)CCCCc1ccc(C2(C)COC2)cc1

microsomal CLint (in vitro [1]): 13 µL/min/mg
microsomal CLint (in vitro [2]): 6 µL/min/mg
solubility (physchem [3]): 4100 µg/mL
Structure (SMILES): CN(C)CCC1(Cc2ccc(C(C)(C)C)cc2)COC1

microsomal CLint (in vitro [1]): 580 µL/min/mg
microsomal CLint (in vitro [2]): 13 µL/min/mg
solubility (physchem [3]): 57 µg/mL
Structure (SMILES): CN(C)C1(CCCc2ccc(C(C)(C)C)cc2)COC1

microsomal CLint (in vitro [1]): 147 µL/min/mg
solubility (physchem [3]): 270 µg/mL
Structure (SMILES): CN(C)CCCC1(c2ccc(C(C)(C)C)cc2)COC1

logP (physchem [4]): 1.01
Structure (SMILES): NCc1cc(F)c(O)c(F)c1

pKa (physchem [7]): 7.12
Structure (SMILES): Oc1c(F)cccc1F

pKa (physchem [7]): 0.37
Structure (SMILES): O=c1c(O)c(-c2ccccc2)c1=O

logP (physchem [4]): 3.56
Structure (SMILES): O=C(c1ccccc1)c1ccn(-c2cc(F)c(O)c(F)c2)c1

Papp (in vitro [10]): 7.41 ×10⁻⁶ cm/s
Structure (SMILES): Cc1nccn1-c1ccc(NC(=O)c2cc(C(F)(F)F)nn2-c2ccc3onc(N)c3c2)c(F)c1

Papp (in vitro [10]): < 0.1 ×10⁻⁶ cm/s
Structure (SMILES): Cc1nccn1-c1ccc(NC(=O)c2cc(C(F)(F)F)nn2-c2ccc3onc(N)c3c2)c(C#N)c1

bioavailability (in vivo [11]): 70%
Structure (SMILES): CCc1cc(C#N)ccc1Nc1c(N[C@H](C)C(C)(C)C)c(=O)c1=O

half-life (in vitro [12]): 65 min
half-life (in vitro [13]): 18 min
Papp (in vitro [14]): 19.8 ×10⁻⁶ cm/s
pKa (physchem [7]): 9.27
solubility (physchem [3]): 78 µM
logD (physchem [15]): 2.77
Structure (SMILES): O=C(CCCN1CC[Si](O)(c2ccc(Cl)cc2)CC1)c1ccc(F)cc1

logP (physchem [4]): 1.01
Structure (SMILES): NCc1ccc(F)c(O)c1F

Papp (in vitro [10]): 0.82 ×10⁻⁶ cm/s
Structure (SMILES): Cc1nccn1-c1ccc(NC(=O)c2cc(C(F)(F)F)nn2-c2ccc3onc(N)c3c2)cc1

logP (physchem [4]): 1.23
Structure (SMILES): O=C(O)Cn1ccc(C(=O)c2ccccc2)c1

half-life (in vivo [17]): 3.5 h
Structure (SMILES): Cc1ccc(-c2cc(C(F)(F)F)nn2-c2ccc(S(N)(=O)=O)cc2)cc1 [CELECOXIB]

Papp (in vitro [14]): 18.9 ×10⁻⁶ cm/s
solubility (physchem [3]): 90 µM
logD (physchem [15]): 2.42
Structure (SMILES): O=C(CCCN1CCC(O)(c2ccc(Cl)cc2)CC1)c1ccc(F)cc1 [HALOPERIDOL]

half-life (clinical): 20 min
Structure (SMILES): CC#CCC(C)[C@H](O)/C=C/[C@@H]1[C@H]2C/C(=C/CCCC(=O)O)C[C@H]2C[C@H]1O (stereo not given in full) [ILOPROST]

half-life (in vivo [17]): 221 h
Structure (SMILES): CS(=O)(=O)c1ccc(-n2nc(C(F)(F)F)cc2-c2ccc(F)cc2)cc1 [SC-58125]

More lines, now with the values behind:

Structure (SMILES): O=C(N[C@H]1c2ccccc2C[C@H]1O)[C@H](Cc1ccccc1)CC(O)C[C@@H](Cc1ccccc1)C(=O)N[C@H]1c2ccccc2C[C@H]1O
EC90 [6]: 23 nM

Structure (SMILES): O=C(O)/C=C/c1cccc(CCc2nc(-c3ccccc3)c(-c3ccccc3)o2)c1
EC50 (cells): 660 nM

Structure (SMILES): O=C(O)CCc1cccc(CCc2nc(-c3ccccc3)c(-c3ccccc3)o2)c1
EC50 (cells): 16000 nM

Structure (SMILES): O=C(O)/C=C/c1cccc(OCc2nc(-c3ccccc3)c(-c3ccccc3)o2)c1
EC50 (cells): 14000 nM

Structure (SMILES): O=C(O)COc1cccc(-c2ocnc2-c2nc(-c3ccccc3)c(-c3ccccc3)o2)c1
EC50 (Platelet [8]): 27 nM
EC50 (Platelet [9]): 27 nM

Structure (SMILES): O=S(=O)(Nc1ccncc1Oc1ccccc1)C(F)(F)F
inhibition in vivo at 30 mg/kg (Rattus norvegicus): 54.1%

Structure (SMILES): O=C(N[C@H]1c2ccccc2C[C@H]1O)[C@H](Cc1ccccc1)C[Si](O)(O)C[C@@H](Cc1ccccc1)C(=O)N[C@H]1c2ccccc2C[C@H]1O
EC90 [6]: 170 nM

Structure (SMILES): COC(=O)N[C@@H](C(=O)NCCCC[C@H](CO)N(CC(C)C)S(=O)(=O)c1ccc(CN)cc1)C(c1ccccc1)c1ccccc1
EC50 [6]: 30 nM

Structure (SMILES): C=C(C)n1c(=O)n(Cc2nc3ccccc3n2CCCC#N)c2cnccc21
half-life (in vitro [12]): 11 min
EC50 [16]: 3 nM

Structure (SMILES): COc1ccc(C2[C@@H](CCCc3ccccc3)C(=O)N2c2ccc(OC)cc2)cc1 (stereo not given in full)
ED50 (Syrian golden hamster): 2.2 mg/kg

Structure (SMILES): O=C(O)CCc1cccc(OCc2nc(-c3ccccc3)c(-c3ccccc3)o2)c1
EC50 (cells): > 80000 nM

Structure (SMILES): O=C(O)COc1cccc(/C=C\c2nc(-c3ccccc3)c(-c3ccccc3)o2)c1
EC50 (Platelet [8]): 180 nM
EC50 (Platelet [9]): 180 nM

Structure (SMILES): O=C(O)COc1cccc(OCc2nc(-c3ccccc3)c(-c3ccccc3)o2)c1
EC50 (cells): 1200 nM

Structure (SMILES): O=C(O)COc1cccc(-c2ncoc2-c2nc(-c3ccccc3)c(-c3ccccc3)o2)c1
EC50 (Platelet [8]): 160 nM
EC50 (Platelet [9]): 160 nM

Structure (SMILES): COc1ccc(C(CN(C)C)[Si]2(O)CCCCC2)cc1 (racemic)
pKa (physchem [7]): 9.7
logD (physchem [15]): 0.92
logP (physchem [4]): 3.21

Structure (SMILES): COc1ccc(C(CN(C)C)C2(O)CCCCC2)cc1 (racemic) [VENLAFAXINE]
logD (physchem [15]): 0.88
logP (physchem [4]): 3.13

Structure (SMILES): O=C1N(Cc2ccc(CO)cc2)[C@H](Cc2ccccc2)[C@H](O)[C@@H](O)[C@@H](Cc2ccccc2)N1Cc1ccc(CO)cc1 [DMP-323]
EC90 [6]: 57 nM

Structure (SMILES): O=C1[C@H](CC[C@H](O)c2ccc(F)cc2)[C@@H](c2ccc(O)cc2)N1c1ccc(F)cc1 [EZETIMIBE]
ED50 (Syrian golden hamster): 0.04 mg/kg

Source: ChEMBL document CHEMBL2203023, “Synopsis of some recent tactical application of bioisosteres in drug design” (J Med Chem, 2011)
